Test results reported in patent publication US9783550B2, “Highly potent inhibitors of porcupine” (The Board of Regents of the University of Texas System, priority 2013, dated 2017).
Entries after “also recorded” stand apart in the source; their conditions may differ.

Experiments:
[1] = test system: Wnt mediated branching morphogenesis in cultured embryonic kidneys; settings: cultured mouse embryonic kidneys; cited from earlier work
[2] = test system: regeneration of the tailfin (Wnt-dependent process); settings: adult and juvenile fish, previously shown; cited from earlier work
[3] = Plasma metabolism assay, rat plasma; type: in vitro ADME
Protocol: (§1) Plasma Metabolism Assay: Murine, rat, and human plasma, collected using acidified citrate dextrose (ACD) anticoagulant, were purchased from Bioreclamation (Westbury, N.Y.). IWP-L6 (27) was added to 1 mL of each plasma at a final concentration of 2 μM, the material was aliquoted into eppendorf tubes, and then incubated for the indicated time points in a 37° C. water bath. At each time point, an aliquot was removed and protein precipitated and compound extracted and analyzed as described above.

[4] = Plasma metabolism assay, murine plasma; type: in vitro ADME, mouse
Protocol: as §1

Relative solubility = type: physicochemical
[5] = S9 metabolism assay, murine liver S9 fractions; type: in vitro ADME, mouse; settings: 2 μM, 37° C., NADPH-regenerating system
Protocol: S9 Metabolism Assay: Male ICR/CD-1 mouse S9 fractions were purchased from Celsis/In Vitro Technologies (Baltimore, Md.). 50 μL (1 mg) of S9 protein was added to a 15 mL glass screw cap tube. 700 μL of a 50 mM Tris, pH 7.5 solution, containing the compound of interest was added on ice. The final concentration of compound after addition of all reagents was 2 μM. 250 μL of an NADPH-regenerating system (1.7 mg/mL NADP, 7.8 mg/mL glucose-6-phosphate, 6 U/mL glucose-6-phosphate dehydrogenase in 2% w/v NaHCO3/10 mM MgCl2) was added and the tube placed in a 37° C. shaking water bath. At varying time points after addition of phase I cofactors, the reaction was stopped by the addition of 1 mL of methanol containing an internal standard compound, n-benzylbenzamide, and formic acid. The samples were incubated 10 min at room temperature and then spun once at 975×g in the glass tube. The supernatant was spun a second time at 16,000×g for 5 min in a microcentrifuge. The supernatant was analyzed by LC-MS/MS. Analytical methods were developed for each compound using an AB SCIEX 3200-QTrap, a combination triple quadrupole/ion trap instrument. Compound transitions utilized for quantitation were as follows: IWP-L6 (27): 473.2 to 303.1; aniline: 171.2 to 127.0; n-benzylbenzamide (internal standard): 212.1 to 91.1. […]

[6] = test system: regeneration of the tailfin (Wnt-dependent process); test: Zebrafish tailfin regeneration; type: in vivo
Excerpt: Achieving transient repression of pathological Wnt response without incurring permanent damage to normal stem cell function is a key anticancer therapeutic goal.

[7] = test system: Wnt mediated branching morphogenesis in cultured embryonic kidneys; test: Branching morphogenesis in cultured mouse embryonic kidneys; type: cell-based
Protocol: FIGS. 8A-B—(FIG. 8A) IWP-L6 (Compound 27) inhibits Wnt mediated branching morphogenesis in cultured embryonic kidneys. Hoxb7Cre; RosaTomato kidneys were dissected from E11.5 embryos and cultured at the air/media interface (Dodge, et al., 2012; Kamer, et al., 2010) Media was replaced every 24 hours. Images were captured every 24 hours using a Zeiss Lumar V12 fluorescent stereoscope. Magnitude: 80× at 0 hours and 24 hours; 60× at 48 hours. (FIG. 8B) The fold increase in the number of ureteric bud tips between time=0 and 48 hours for each treatment was quantified. Statistics were performed using Student T-test.
IWP2 (2) has been previously shown to specifically and reversibly block Wnt signaling and Wnt mediated branching morphogenesis in cultured mouse embryonic kidneys (Kamer, et al., 2010; Dodge, et al., 2012, which are incorporated by reference herein). […] Embryonic day (E) 11.5 kidneys in media containing various doses (1 nM to 1 μM) of IWP-L6 (27) were cultured. […] In comparison, a dose of 5 μM of IWP-2 (2) was required to obtain similar results (Dodge, et al., 2012; Karner, et al., 2010).

[8] = Plasma metabolism assay, human plasma; type: in vitro ADME; settings: over 24 h; 2 μM, 37° C.
Protocol: as §1

[9] = test system: posterior axis formation (Wnt/β-catenin dependent developmental process); test: Zebrafish posterior axis formation assay; type: in vivo; settings: zebrafish embryos, low micromolar concentrations, FIG. 7
Protocol: Zebrafish embryos harboring a mCherry-based reporter of Wnt/β-catenin signaling (Moro, et al., 2012) were treated with increasing concentrations of IWP-L6 (FIG. 3 Compound 27) in the aquarium water. Fluorescence intensity of animals was quantified as before (Dodge et al., 2012). (FIG. 7B) Activity of the IWP compounds IWP-L6 (Compound 27), 30, 32, and 35 was measured using the posterior axis formation assay.

[10] = test system: phosphorylation of dishevelled 2 (Dv12) in HEK293 cells; test: Phosphorylation of dishevelled 2 in HEK293 cells (gel electrophoresis); type: cell-based
Excerpt: FIG. 4—The Porcn inhibitor, IWP-L6 (FIG. 3 Compound 27), blocks the phosphorylation of the cytoplasmic Wnt pathway effector Dv12 shown through gel electrophoresis.
Among the five newly identified sub-nanomolar IWPs, compound 27 was selected for further biological evaluations and named IWP-L6. […] The in vivo stability of IWP-L6 (27) (FIG. 5) was further profiled. […] The major metabolites are the amide cleavage products. Similar species-dependent metabolitic profiles due to the involvement of carboxylesterase (CES) have been reported with other drug candidates (Eng, et al., 2010; Liu, et al., 2011) These observations are consistent with the elevated activity of CES in mouse and rat but not human (Berry, et al., 2009; Rudakova, et al., 2011; Bahar, et al., 2012).

[11] = test system: cell-autonomous Wnt signaling in mouse fibroblasts (L cells); test: Wnt signaling / Porcn-inhibiting activity, EC50 in mouse fibroblasts (L cells); type: cell-based
Excerpt: The four IWP lead compounds (1-4) were identified in the initial screen of 200,000 compounds (ChemDiv, ChemBridge, ComGenex, Prestwick and TimTek libraries) bear similar molecular skeletons (FIG. 1). […] The phthalazinone moiety of IWP-1 (1) and pyrimidinone moiety of IWP-2-4 (2-4) can be considered to be exchangeable scaffolding motifs for the compounds. The benzothiazole moiety appears to be a conserved motif and the phenyl group tolerates both electronic and steric perturbations.
While there is only 69% sequence identity between mouse Porcn and zebrafish Porcn, the in vitro EC50 values (FIG. 3) measured in mouse fibroblasts (L cells) correlate with the in vivo activity observed in fish but not linearly.

## Cc1ccc2nc(NC(=O)CSc3nc4c(c(=O)n3-c3ccccc3)SCC4)sc2c1 [IWP-2]
[1]
  dose required to obtain similar results (block of branching morphogenesis): 5 µM

## Cc1ccc2nc(NC(=O)CSc3nc4c(c(=O)n3C)SC(C)C4)sc2c1 (centres unmarked) [IWP-12]
[2]
  block of tailfin regeneration: effectively block

## O=C(CSc1nc2c(c(=O)n1-c1ccccc1)SCC2)Nc1ccc(-c2ccccc2)cn1 [IWP-L6]
[3]; 2 μM, 37° C.
  t1/2 in rat plasma: 190 min
[3]; as a function of time, FIG. 5
  degradation in rat plasma (in words): much more significant degradation
[4]; 2 μM, 37° C.
  t1/2 in murine plasma: 2 min
[4]; as a function of time, FIG. 5
  degradation in mouse plasma (in words): much more significant degradation
Relative solubility
  solubility relative to IWP-2 (2) and 20: more soluble
[5]
  t1/2 in murine liver S9 fractions: 26 min
[6]; resected caudal fins, 7 d in water containing compound, then removal
  fin regeneration after chemical removal: nearly normal levels
[6]; zebrafish, FIG. 6
  inhibition of tailfin regeneration (comparison in words): more potent activity; also recorded: more significant
[7]; E11.5 kidneys
  dose that completely blocked branching morphogenesis: ≥ 50 nM
[7]; E11.5 kidneys, relative to DMSO treated controls
  dose that significantly reduced branching morphogenesis: ≥ 10 nM
[7]; FIG. 8A
  inhibition of Wnt mediated branching morphogenesis (in words): inhibits
[7]; cultured E11.5 mouse kidneys
  potency relative to IWP-2 (2): at least 100 times
[8]
  stability in human plasma: stable; also recorded: little degradation
[9]
  inhibition of posterior axis formation: effectively inhibit; also recorded: inhibits
[10]
  suppression of phosphorylation of dishevelled 2 (Dv12): effectively suppressed; also recorded: blocks
[11]
  EC50 (in words): sub-nanomolar
[11]; general structure C, FIG. 3 series
  Porcn-inhibiting activity (in words): slight improvement of activity

## O=C(Nc1cccc2cccnc12)c1ccc(N2C(=O)[C@@H]3[C@H](C2=O)[C@@H]2C=C[C@H]3C2)cc1 [IWR-1]
[2]
  block of tailfin regeneration: effectively block
